The test system of one data set is nursery pigs. As to the kind of experiment: Growth rate and feed conversion in freshly weaned nursery pigs fed supplemented feed. In kind it is in vivo. To be noted: 0.2 mg/kg feed. Here is the method: The objective of this experiment was to evaluate if supplementation of feed with L-lactate-D-alanine-L-glutamine palmityl ester (LDPP) at 0.2 mg/kg feed increases the growth rate and/or improves the feed conversion in freshly weaned nursery pigs.
Male pigs (barrows) were used in this study. Pigs were weaned at approximately 3 weeks of age, transferred to the nursery, and randomly allotted to 24 nursery pens with 4 pigs per pen. One of 2 dietary treatments, untreated controls (feed without supplement) or LDPP-treatment (0.2 mg LDPP/kg feed), was assigned to each pen, such that 12 pens of 4 pigs were used to evaluate the effect of each diet. Premixes of the treatment compounds were added at 0.1% to mixed diets, which were then pelleted. Phase 1 diet was fed at 6 lb/pig from day 0 to approximately day 8 post-weaning. On day 8 post-weaning, pigs were switched to 12 lb/pig Phase 2 diet which expired approximately on day 18. Once the Phase 2 diet had been consumed, pigs were switched to Phase 3 diet and maintained until termination of the study on day 42. No antibiotics were added to any diet. Diets were formulated to meet or exceed all the nutrient requirements based on the 2012 NRC specifications. Pigs received diets and water ad libitum. Pigs were weighed individually on days 0 and 42 of the experiment. Feed intake per pen was monitored for the weigh period. Although individual pig weights were obtained, the pen was the experimental unit. On day 42, the study was terminated and untreated pigs were retained in the food chain while the treatment pigs were euthanized.
Pen data were converted into individual pig data by dividing by the number of pigs. For three pens in which pigs were euthanized, a time-fractional pig number was used. Body weight gain and calculated feed consumption data were analyzed by pairwise T-test. The overall (true) feed conversion for each treatment was determined by dividing total consumed feed by total weight gains of all pens of each treatment. Treatment differences in feed conversion were statistically evaluated by non-parametric Mann Whitney U test of pen feed conversion data.
For constant body weight gain analyses, the time on feed of the LDPP treated group was modeled to match the weight gain of the untreated control group. Daily body weights and weight gains were modeled by linear interpolation between weights on days 0 and 42. […] From interpolated daily body weight data, daily feed consumption was first calculated as 5% of body weight. The sum of these daily feed uptakes was then divided by the actual weighed feed uptake of each pen, and daily feed uptakes were multiplied by this fraction to arrive at the precise weighed feed uptake per pen. These calculated daily feed uptakes were used to calculate feed uptake by changed times on feed for the LDPP treatment group. Mean feed uptake of the LDPP treatment group was then calculated by subtracting for each pen the previously found day 42 and 41 and the fractional day 40 feed uptake.
Body weight gain and feed consumption data were analyzed by one-way ANOVA and Student's T-test. Differences in feed conversion rates were evaluated from pen FCR data by non-parametric Mann Whitney U test.

The next data set relates to broiler chickens. In words: Growth rate and feed conversion in broiler chickens fed supplemented feed. In kind it is in vivo. To be noted: for feed conversion rate at constant body weight gain: LDPP 0.2 mg/kg feed, bacitracin 50 mg/kg feed. Here is the method: The objective of this experiment was to evaluate if supplementation of feed with L-lactate-D-alanine-L-glutamine palmityl ester (LDPP) at 0.2 mg/kg feed increases the growth rate and/or improves the feed conversion in broiler chickens, i.e., if it promotes growth by making broiler chickens grow faster and/or require less feed for the same amount of gain in body weight. A secondary objective was to compare the effect of LDPP to that of bacitracin, an industry-standard growth promoting antibiotic.
Freshly hatched female Ross 708 broiler chickens were housed for as single flock for 21 days on a floor pen with used bedding. All chickens received crumbled untreated standard Aviagen 708 starter and grower feeds during this time, with 80% recommended crude protein and without anti-coccidial supplement. After 3 weeks, the chickens were grouped into 38 replicate floor pens of 25 chickens with fresh bedding. Chickens were fed for 24 days from day 21 through termination on day 44 standard crumbled finisher Aviagen 708 finisher feed with 100% protein and 0.0125% amprolium anti-coccidial inclusion. Feed and water were available ad libitum throughout the trial. Thirteen pens each were assigned to untreated controls (feed without supplement) and LDPP-treatment (0.2 mg LDPP/kg feed), and 12 pens were assigned to bacitracin treatment (50 mg bacitracin/kg feed). The experimental unit was the pen rather than individual chickens. Pen weights of chickens were determined on day 21 and 44. Finisher feed uptake was be recorded, and on day 44 residual feed was determined, and the experiment was terminated.
For constant time analyses of the complete 24-day duration of the feeding experiment, the overall (true) feed conversion for each treatment group was determined by dividing total consumed feed by total weight gains of all pens of each treatment group.
For constant body weight gain analyses, the time on feed of the bacitracin and LDPP treated groups was modeled to match the weight gain of the untreated control group. Based on the closely matching body weights and weight gains of standard female Ross 708 broilers, body weight gains per chicken on the last day 44 of the experiment were calculated as the 0.04781 fraction of pen body weight gain day 21-44/surviving chickens per pen. […] Similarly, feed consumption per chicken on day 44 was calculated as the 0.05867 fraction of pen feed uptake day 21-44/surviving chickens per pen. Mean feed uptake per treatment group was then calculated by subtracting the previously found fractional daily feed uptake from each pen.
Body weight gain and feed consumption data were analyzed by one-way ANOVA and Tukey […] connection for multiple comparisons. Group differences in feed conversion rates were evaluated from pen FCR data by non-parametric Mann Whitney U test.

[1] abbreviates: modeled, 1,653 g constant weight gain.

Peptide text beside a SMILES is read from it.

`CCCCCCCCCCCCCCCCOC(=O)[C@H](CCC(N)=O)NC(=O)[C@@H](C)NC(=O)[C@H](C)O` [LDPP, hexadecyl (2S)-5-amino-2-[[(2R)-2-[[(2S)-2-hydroxypropanoyl]amino]propanoyl]amino]-5-oxo-pentanoate]: the “improvement of feed conversion rate at constant time versus untreated” value in the data set with nursery pigs (42 days) was determined as 3.8%. Besides, the “feed conversion rate at constant time” value with nursery pigs (42 days, total consumed feed / total weight gain, untreated 1.479) worked out at 1.423; with broiler chickens (0.2 mg/kg feed, 24 days, total consumed feed / total weight gain, untreated 1.818), 1.805. Further, the “morbidity and mortality rates between groups” value with nursery pigs (day 0-42) is on record as “did not differ significantly”; with broiler chickens (0.2 mg/kg feed, day 21-44), “did not differ significantly”. In addition, in the data set on nursery pigs (day 0-42 (constant time)), the “body weight gain per pig” value is recorded as 23.826 kg. The “increase of weight gain versus untreated nursery pigs” value in the data set on nursery pigs (day 0-42 (constant time), control 22.076 kg) is 7.9%. The “improvement of feed conversion rate at constant body weight gain versus untreated” value in the data set with nursery pigs (modeled constant weight gain) is 5.5%; in the data set with broiler chickens (0.2 mg/kg feed, modeled constant weight gain) it was 1.7%. Moreover, the “more rapid growth compared to controls” value in the data set with nursery pigs (modeled constant weight gain) is given as 2.1 days. The “feed conversion rate at constant body weight gain” value in the data set with nursery pigs (modeled, 22.076 kg constant weight gain) is 1.396; in the data set with broiler chickens (setting [1]) it was 1.787. Also, the “time on feed required for weight gain identical to untreated controls” value in the data set with nursery pigs (modeled, 22.076 kg constant weight gain, controls 42 days) is given as 39.921 days; in the data set with broiler chickens (0.2 mg/kg feed, modeled, 1,653 g constant weight gain, controls 24 days), 23.13 days. For the same compound, the “body weight gain per chicken” value in the data set with broiler chickens (0.2 mg/kg feed, day 21-44 (24 days constant time)) is reported as 1,725 g. Moreover, the “increase of weight gain versus untreated control chickens” value in the data set with broiler chickens (0.2 mg/kg feed, day 21-44 (24 days constant time), control 1,653 g) was 4.4%.

Consider `CC[C@H](C)[C@H](N)C1=N[C@H](C(=O)N[C@@H](CC(C)C)C(=O)N[C@H](CCC(=O)O)C(=O)N[C@H](C(=O)N[C@H]2CCCCNC(=O)[C@H](CC(N)=O)NC(=O)[C@@H](CC(=O)O)NC(=O)[C@H](Cc3cnc[nH]3)NC(=O)[C@@H](Cc3ccccc3)NC(=O)[C@H]([C@@H](C)CC)NC(=O)[C@@H](CCCN)NC2=O)[C@@H](C)CC)CS1` [bacitracin, reference compound] (HELM PEPTIDE1{[CC[C@H](C)[C@H](N)C1=N[C@H](C(=O)[*:2])CS1].L.[dE].I.K.[NCCC[C@@H](N[*:1])C(=O)[*:2]].I.[dF].H.[dD].N}$PEPTIDE1,PEPTIDE1,5:R3-11:R2$$$V2.0), for which, in the data set with broiler chickens (setting [1]), the “feed conversion rate at constant body weight gain” value is on record as 1.827.

The record behind these values is patent US12492222B2, “Lipophilic enantiomers of desacetylglucosamine muramyl dipeptide with anti-inflammatory and growth promoting activity” (Nutrivert Inc., priority 2020, dated 2025).
